Results from patent US6979686B1, “Substituted pyrazoles as p38 kinase inhibitors” (Pharmacia Corporation, priority 2001, dated 2005).
Read-outs that look alike come from different tables or passages of the source.

Assays:
[1] = system: TNF-α, U937 human histiocytic lymphoma cell line; assay: LPS stimulation of TNF production by U937 cells; format: cell-based; settings: for inhibition at 1 µM: U-937, @ 1.0 uM, read-out: U937 Cell % inhib @ conc.
Procedure: Maintenance and Differentiation of the U937 Human Histiocytic Lymphoma Cell Line:
Fifty million cells in 100 ml media were induced to terminal monocytic differentiation by 24 hour incubation with 20 ng/ml phorbol 12-myristate 13-acetate (Sigma). The cells were washed by centrifugation (200×g for 5 min) and resuspended in 100 ml fresh medium. After 24-48 hours, the cells were harvested, centrifuged, and resuspended in culture medium at 2 million cells/ml.
LPS Stimulation of TNF Production by U937 Cells:
Compounds were prepared as 10 mM stock solutions in DMSO and diluted in culture medium to yield a final DMSO concentration of 0.1% in the cell assay. LPS (E coli, 100 ng/ml final concentration) was then added at a volume of 0.02 ml. After 4 hour incubation at 37° C., the amount of TNF-α released in the culture medium was quantitated by ELISA. Inhibitory potency is expressed as IC50 (μM).
In vitro whole cell assay for measuring the ability of the compounds to inhibit TNF production in human U937 cells stimulated with LPS are shown in the column identified as: • “U937 Cell IC50, uM or % inhib @ conc., (uM)”

[2] = biological target: T1, human p38 kinase alpha (Homo sapiens, UniProt Q16539); assay: p38 kinase in vitro assay, phosphorylation of biotinylated PHAS-I with 32P-ATP; format: biochemical; settings: for IC50: read-out: P38 alpha kinase IC50
T1 construct: GST (N, cleaved yes); made in house; host or cells: E. coli DH10B

[3] = @ 1.0 uM, TNF production, U937 cells stimulated with LPS
[4] = Homo sapiens, TNF production, LPS-stimulated U937 cells
[5] = in vitro P38-alpha kinase inhibition
[6] = Homo sapiens, TNF production, U937 cells stimulated with LPS
[7] = TNF production, human U937 cells stimulated with LPS, read-out: U937 Cell IC50
[8] = @ 10.0 uM, TNF production, U937 cells stimulated with LPS

T1 sequence (Q16539 whole entry): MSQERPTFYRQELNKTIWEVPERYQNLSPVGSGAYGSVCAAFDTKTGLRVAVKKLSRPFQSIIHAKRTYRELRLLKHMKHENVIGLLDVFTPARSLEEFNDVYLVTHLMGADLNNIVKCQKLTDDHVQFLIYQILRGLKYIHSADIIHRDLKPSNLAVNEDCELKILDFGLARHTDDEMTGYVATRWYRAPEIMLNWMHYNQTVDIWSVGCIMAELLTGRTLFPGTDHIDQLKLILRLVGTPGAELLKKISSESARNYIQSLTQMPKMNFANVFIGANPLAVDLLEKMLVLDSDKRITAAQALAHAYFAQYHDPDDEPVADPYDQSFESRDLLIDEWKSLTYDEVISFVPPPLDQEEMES

## CCOC(=O)c1cccc(NC(=O)NCCc2[nH]nc(-c3ccc(F)cc3)c2-c2ccncc2)c1 [Example B-0942]
[1]; [3]
  U937 Cell % inhib @ conc. (uM): 2.0% @
[2]; @ 1.0 uM
  P38 alpha kinase % inhib @ conc. (uM): 82.0% @

## O=S(=O)(c1c(F)cccc1F)N1CCC(c2[nH]nc(-c3ccc(F)cc3)c2-c2ccncc2)CC1 [Example B-1455]
[1]; [4]
  inhibition at 1 µM: 8%
[2]; in vitro P38-alpha kinase
  IC50: 1210 nM

## CC(=O)NCCNC(=O)NCCCc1[nH]nc(-c2ccc(F)cc2)c1-c1ccncc1 [Example B-1305]
[1]; @ 1.0 uM, TNF production, LPS-stimulated U937 cells
  U937 Cell % inhib @ conc.: 9.0% @
[2]; in vitro P38-alpha kinase
  IC50: 640 nM

## O=C(NCCc1[nH]nc(-c2ccc(F)cc2)c1-c1ccncc1)NC(=O)c1ccccc1 [Example B-0934]
[1]; [3]
  U937 Cell % inhib @ conc. (uM): 36.0% @
[2]; @ 1.0 uM
  P38 alpha kinase % inhib @ conc. (uM): 67.0% @

## O=S(=O)(c1ccccc1F)N1CCC(c2[nH]nc(-c3ccc(F)cc3)c2-c2ccncc2)CC1 [Example B-1377]
[1]; Homo sapiens, U-937, TNF production, human U937 cells stimulated with LPS, read-out: U937 Cell IC50
  IC50: 5 µM
[2]; in vitro P38-alpha kinase
  IC50: 120 nM

## O=S(=O)(c1ccc(Cl)cc1)N1CCC(c2[nH]nc(-c3ccc(F)cc3)c2-c2ccncc2)CC1 [Example B-1471]
[1]; [4]
  inhibition at 1 µM: 25%
[2]; in vitro P38-alpha kinase
  IC50: 850 nM

## CC(C)c1cc(C(C)C)c(C(=O)NC(C)c2[nH]nc(-c3ccc(F)cc3)c2-c2ccncc2)c(C(C)C)c1 (stereo not drawn) [Example B-0497]
[1]; Homo sapiens, TNF production in human U937 cells stimulated with LPS
  inhibition at 1 µM: 31%
[2]; [5]
  IC50: 440 nM

## O=S(=O)(NCCc1[nH]nc(-c2ccc(F)cc2)c1-c1ccncc1)c1ccc(Cl)cc1Cl [Example B-1076]
[1]; [6]
  inhibition at 1 µM: 31%
[2]; [5]
  IC50: 80 nM

## O=C(NCc1[nH]nc(-c2ccc(F)cc2)c1-c1ccncc1)Nc1ccccc1F [Example B-0162]
[1]; [7]
  IC50: 2.05 µM
[2]; @ 1.0 uM
  P38 alpha kinase % inhib @ conc.: 23% @

## O=C(NCCc1[nH]nc(-c2ccc(F)cc2)c1-c1ccncc1)Nc1ccc(Cc2ccccc2)cc1 [Example B-0943]
[1]; [3]
  U937 Cell % inhib @ conc. (uM): 24.0% @
[2]; @ 10.0 uM
  P38 alpha kinase % inhib @ conc. (uM): 63.0% @

## Cn1cnc(S(=O)(=O)N2CCC(c3[nH]nc(-c4ccc(F)cc4)c3-c3ccncc3)CC2)c1 [Example B-1434]
[1]; [4]
  inhibition at 1 µM: 28%
[2]; in vitro P38-alpha kinase
  IC50: 190 nM

## C=CCN(C(=O)Cn1nc(-c2ccc(F)cc2)c(-c2ccncc2)c1C)C1CCCCC1 [Example B-2373]
[1]; @ 10.0 uM, TNF production, LPS-stimulated U937 cells
  U937 Cell % inhib @ conc.: 6% @
[2]; @ 100.0 uM
  P38 alpha kinase % inhib @ conc.: 50.0% @

## Cc1c(-c2ccncc2)c(-c2ccc(F)cc2)nn1CC(=O)N1CCCCC1CC1CCCN1C (mixture of isomers) [Example B-2388]
[1]; [8]
  U937 Cell IC50, uM or % inhib @ conc. (uM): % inhib: 24.0% @
[2]; @ 10.0 uM
  P38 alpha kinase IC50, uM or % inhib @ conc. (uM): % inhib: 42.0% @

## COC(=O)[C@H](CSCc1ccccc1)NC(=O)Cn1nc(-c2ccc(F)cc2)c(-c2ccncc2)c1C [Example B-2339]
[1]; [7]
  IC50: > 10 µM
[2]; @ 10.0 uM
  P38 alpha kinase % inhib @ conc.: 84.0% @

## Cc1ccc(S(=O)(=O)NCCc2[nH]nc(-c3ccc(F)cc3)c2-c2ccncc2)cc1 [Example B-1027]
[1]; [3]
  U937 Cell % inhib @ conc. (uM): 18.0% @
[2]; @ 1.0 uM
  P38 alpha kinase % inhib @ conc. (uM): 58.0% @

## N#Cc1ccc(S(=O)(=O)N2CCC(c3[nH]nc(-c4ccc(F)cc4)c3-c3ccncc3)CC2)cc1 [Example B-1475]
[1]; [4]
  inhibition at 1 µM: 24%
[2]; in vitro P38-alpha kinase
  IC50: 2100 nM

## Cc1c(-c2ccncc2)c(-c2ccc(F)cc2)nn1CC(=O)Nc1ccccc1OC(F)(F)F [Example B-2453]
[1]; TNF production, U937 cells stimulated with LPS, read-out: U937 Cell IC50, uM or % inhib @ conc. (uM): IC50
  IC50: > 10 µM
[2]; @ 10.0 uM
  P38 alpha kinase IC50, uM or % inhib @ conc. (uM): % inhib: 91.0% @

## COCCN(Cc1cccc(OC)c1)C(=O)Cn1nc(-c2ccc(F)cc2)c(-c2ccncc2)c1C [Example B-2394]
[1]; [8]
  U937 Cell IC50, uM or % inhib @ conc. (uM): % inhib: 22.0% @
[2]; @ 10.0 uM
  P38 alpha kinase IC50, uM or % inhib @ conc. (uM): % inhib: 37.0% @

## O=C(NCc1[nH]nc(-c2ccc(F)cc2)c1-c1ccncc1)c1cccs1 [Example B-0303]
[1]; [3]
  U937 Cell % inhib @ conc.: 10.0% @

## COc1ccc(CC(=O)N[C@H](C)c2[nH]nc(-c3ccc(F)cc3)c2-c2ccncc2)cc1OC [Example B-0371]
[1]; [6]
  inhibition at 1 µM: 28%

## Cc1cccc(C(=O)NCc2[nH]nc(-c3ccc(F)cc3)c2-c2ccncc2)c1 [Example B-0067]
[1]; [3]
  U937 Cell % inhib @ conc.: 1.0% @

## C[C@@H](NS(=O)(=O)c1ccc2ccccc2c1)c1[nH]nc(-c2ccc(F)cc2)c1-c1ccncc1 [Example B-0475]
[1]; @ 1.0 uM, TNF production in human U937 cells stimulated with LPS
  U937 Cell % inhib @ conc. (uM): 74.0% @

## O=C(NC(Cc1ccccc1)c1[nH]nc(-c2ccc(F)cc2)c1-c1ccncc1)c1ccncc1 (stereo not drawn) [Example B-0854]
[1]; [3]
  U937 Cell % inhib @ conc. (uM): 25.0% @

## Cc1ccc(-c2n[nH]c(C)c2-c2ccncc2)c(C)c1 [Example A-31]
[1]; Table 5, LPS-stimulated U937 cells, TNF-α, read-out: U937 Cell Assay IC50
  IC50: 1.05 µM
